Where two headings read alike, the source gives them in different places.
Tests used:
[1] = tested on: CQS 3D7 strain; assay: In vitro antiplasmodial activity, SYBR Green I-based fluorescent assay; assay type: cell-based, P. falciparum; settings: Plasmodium falciparum, 3D7, 72 h, read-out: Antiplasmodial activity EC50 3D7
[2] = tested on: CQR Dd2 strain of P. falciparum; assay: microbe, parasite or virus in culture; assay type: cell-based
[3] = in vitro; settings: human
[4] = tested on: tightly synchronized P. falciparum Dd2 cultures; assay: Stage specific action assay; assay type: cell-based; settings: 5 × EC50, synchronized Dd2, late schizont/segmenters
[5] = tested on: P. falciparum Dd2 asynchronous cultures; assay: In vitro killing profile assay; assay type: cell-based; settings: 5 × EC50, Dd2, compound washed out, growth monitored 96 h
[6] = Plasmodium falciparum, DD2, 72 h, read-out: Antiplasmodial activity EC50 Dd2, CQR Dd2 strain, 72 h incubation, at least three independent experiments

Molecule: CCN(CC)CCCC(C)Nc1ccnc2cc(Cl)ccc12 (centres unmarked) [CQ, chloroquine]
- EC50 [1]: 20 ± 10 nM
- EC50 ([2]; Plasmodium falciparum, DD2, 72 h, read-out: Antiplasmodial activity EC50 Dd2): 170 ± 20 nM
- EC50 at 48 h [3]: 10400 ± 860 nM

Molecule: Clc1ccc2nc(/C=C/c3ccncc3)cc(-n3cc(CN4CCOCC4)nn3)c2c1 [compound 28, (E)-4-((1-(6-chloro-2-(2-(pyridin-4-yl)vinyl)quinolin-4-yl)-1H-1,2,3-triazol-4-yl)-methyl)morpholine]
- EC50 [2, 6]: > 8000 nM

Molecule: CN1CCN(Cc2cn(-c3cc(/C=C/c4ccncc4)nc4ccc(Cl)cc34)nn2)CC1 [compound 29, (E)-6-chloro-4-(4-((4-methylpiperazin-1-yl)methyl)-1H-1,2,3-triazol-1-yl)-2-(2-(pyridin-4-yl)vinyl)quinoline]
- EC50 [2, 6]: > 8000 nM

Molecule: O=C1c2ccccc2C(=O)N1Cc1cn(-c2cc(/C=C/c3ccncc3)nc3ccc(Cl)cc23)nn1 [compound 32, (E)-2-((1-(6-chloro-2-(2-(pyridin-4-yl)vinyl)quinolin-4-yl)-1H-1,2,3-triazol-4-yl)methyl)isoindoline-1,3-dione]
- EC50 [2, 6]: > 8000 nM

Molecule: Clc1ccc2nc(/C=C/c3ccncc3)cc(NCCn3cc(CN4CCOCC4)nn3)c2c1 [compound 53, (E)-6-chloro-N-(2-(4-(morpholinomethyl)-1H-1,2,3-triazol-1-yl)ethyl)-2-(2-(pyridin-4-yl)vinyl)quinolin-4-amine]
- fold improved activity over analogue 28 ([2]; Dd2 EC50 ratio): above 5 fold

Molecule: O=C1c2ccccc2C(=O)N1Cc1cn(CCNc2cc(/C=C/c3ccncc3)nc3ccc(Cl)cc23)nn1 [compound 57, (E)-2-((1-(2-((6-chloro-2-(2-(pyridin-4-yl)vinyl)quinolin-4-yl)amino)ethyl)-1H-1,2,3-triazol-4-yl)methyl)isoindoline-1,3-dione]
- fold more potent than compound 32 ([2]; Dd2 EC50 ratio): ~8 fold

Molecule: Clc1ccc2nc(/C=C/c3ccncc3)cc(NCCCCn3cc(CN4CCCCC4)nn3)c2c1 [compound 60, (E)-6-chloro-N-(4-(4-(piperidin-1-ylmethyl)-1H-1,2,3-triazol-1-yl)butyl)-2-(2-(pyridin-4-yl)vinyl)quinolin-4-amine]
- effect on intraerythrocytic development, compound added at 42 h [4]: did not affect the schizont maturation and reinvasion of new merozoites
- parasite viability after 24 and 48 h exposure [5]: complete loss of parasite viability

Molecule: (E)-2-((1-(4-((6-chloro-2-styrylquinolin-4-yl)amino)butyl)-1H-1,2,3-triazol-4-yl)methyl)isoindoline-1,3-dione [compound 64]
- EC50 ([2]; read-out: Antiplasmodial activity EC50 Dd2, CQR Dd2 strain, 72 h incubation, at least three independent experiments): 1000 ± 180 nM

From publication PMC7744367 (European journal of medicinal chemistry, 2020)
